Source: US10428044B2, “3-amino-1,5,6,7-tetrahydro-4H-indol-4-ones” (Bayer Pharma Aktiengesellschaft, priority 2014, dated 2019)

Biological target: (recombinant) catalytic domain of human Bub1 (amino acids 704-1085) (Homo sapiens (Human), UniProt O43683)
Experiment: Bub1 kinase assay (TR-FRET)
Format: biochemical
Conditions: ATP 10 μM final, peptide substrate 1 μM final, 60 min at 22° C., read-out: Biological Assay: Bub1 kinase assay median IC50
Method in brief: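 Compounds were serially diluted 1:3.4 from 2 mM DMSO stocks and incubated with the enzyme reaction for 60 min at 22° C. The reaction was stopped with EDTA, and biotinylated peptide phosphorylation was read by TR-FRET using Eu anti-mouse IgG, anti-phosphoserine antibody and streptavidin-XL665. IC50 was fitted by 4-parameter logistic to inhibition normalized to no-inhibitor and no-enzyme controls.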

Chain of (recombinant) catalytic domain of human Bub1 (amino acids 704-1085) (O43683 704-1085): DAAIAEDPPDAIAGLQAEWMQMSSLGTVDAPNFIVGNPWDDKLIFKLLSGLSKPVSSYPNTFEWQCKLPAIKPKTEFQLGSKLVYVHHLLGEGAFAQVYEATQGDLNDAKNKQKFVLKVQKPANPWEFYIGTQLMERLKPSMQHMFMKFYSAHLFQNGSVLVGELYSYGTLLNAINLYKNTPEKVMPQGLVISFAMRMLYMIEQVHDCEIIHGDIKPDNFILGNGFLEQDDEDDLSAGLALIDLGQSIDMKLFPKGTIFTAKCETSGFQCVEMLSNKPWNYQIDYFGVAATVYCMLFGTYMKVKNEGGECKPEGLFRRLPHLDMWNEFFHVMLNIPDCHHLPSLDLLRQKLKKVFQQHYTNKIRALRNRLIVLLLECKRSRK

Row | SMILES | IC50 [µM]
1 | CC1(C)CC(=O)c2c([nH]c(-c3ccncc3)c2Nc2cccc(O)c2)C1 [Example 89, 3-[(3-hydroxyphenyl)amino]-6,6-dimethyl-2-(pyridin-4-yl)-1,5,6,7-tetrahydro-4H-indol-4-one] | 0.288
2 | CC1(C)CC(=O)c2c([nH]c(-c3ccncc3)c2Nc2ccc([N+](=O)[O-])cc2)C1 [Example 90, 6,6-dimethyl-3-[(4-nitrophenyl)amino]-2-(pyridin-4-yl)-1,5,6,7-tetrahydro-4H-indol-4-one] | 0.509
3 | Cc1c(Cl)cccc1Nc1c(-c2ccncc2)[nH]c2c1C(=O)CC(C)(C)C2 [Example 91, 3-[(3-chloro-2-methylphenyl)amino]-6,6-dimethyl-2-(pyridin-4-yl)-1,5,6,7-tetrahydro-4H-indol-4-one] | 0.101
4 | Cc1ccc(Nc2c(-c3ccncc3)[nH]c3c2C(=O)CC(C)(C)C3)cc1Cl [Example 92, 3-[(3-chloro-4-methylphenyl)amino]-6,6-dimethyl-2-(pyridin-4-yl)-1,5,6,7-tetrahydro-4H-indol-4-one] | 0.296
5 | Cc1ccc(Cl)cc1Nc1c(-c2ccncc2)[nH]c2c1C(=O)CC(C)(C)C2 [Example 93, 3-[(5-chloro-2-methylphenyl)amino]-6,6-dimethyl-2-(pyridin-4-yl)-1,5,6,7-tetrahydro-4H-indol-4-one] | 7.4
6 | CC1(C)CC(=O)c2c([nH]c(-c3ccncc3)c2Nc2cccc(Cl)c2F)C1 [Example 94, 3-[(3-chloro-2-fluorophenyl)amino]-6,6-dimethyl-2-(pyridin-4-yl)-1,5,6,7-tetrahydro-4H-indol-4-one] | 0.114
7 | CC1(C)CC(=O)c2c([nH]c(-c3ccncc3)c2Nc2ccc(F)c(Cl)c2)C1 [Example 95, 3-[(3-chloro-4-fluorophenyl)amino]-6,6-dimethyl-2-(pyridin-4-yl)-1,5,6,7-tetrahydro-4H-indol-4-one] | 0.0437
8 | CC(C)C(=O)Nc1cccc(Nc2c(-c3ccncc3)[nH]c3c2C(=O)CC(C)(C)C3)c1 [Example 97, N-(3-{[6,6-dimethyl-4-oxo-2-(pyridin-4-yl)-4,5,6,7-tetrahydro-1H-indol-3-yl]amino}phenyl)-2-methylpropanamide] | 2.98
9 | CCC(=O)Nc1cccc(Nc2c(-c3ccncc3)[nH]c3c2C(=O)CC(C)(C)C3)c1 [Example 98, N-(3-{[6,6-dimethyl-4-oxo-2-(pyridin-4-yl)-4,5,6,7-tetrahydro-1H-indol-3-yl]amino}phenyl)propanamide] | 1.54
10 | CNC(=O)c1cccc(Nc2c(-c3ccncc3)[nH]c3c2C(=O)CC(C)(C)C3)c1 [Example 99, 3-{[6,6-dimethyl-4-oxo-2-(pyridin-4-yl)-4,5,6,7-tetrahydro-1H-indol-3-yl]amino}-N-methylbenzamide] | 2.21
11 | CC1(C)CC(=O)c2c([nH]c(-c3ccncc3)c2Nc2ccc3[nH]ncc3c2)C1 [Example 100, 3-(1H-indazol-5-ylamino)-6,6-dimethyl-2-(pyridin-4-yl)-1,5,6,7-tetrahydro-4H-indol-4-one] | 0.0952
12 | CC1(C)CC(=O)c2c([nH]c(-c3ccncc3)c2Nc2cccc(C(N)=O)c2)C1 [Example 101, 3-{[6,6-dimethyl-4-oxo-2-(pyridin-4-yl)-4,5,6,7-tetrahydro-1H-indol-3-yl]amino}benzamide] | 0.507
13 | CCCC(=O)Nc1cccc(Nc2c(-c3ccncc3)[nH]c3c2C(=O)CC(C)(C)C3)c1 [Example 102, N-(3-{[6,6-dimethyl-4-oxo-2-(pyridin-4-yl)-4,5,6,7-tetrahydro-1H-indol-3-yl]amino}phenyl)butanamide] | 0.954
14 | CCOc1cccc(Nc2c(-c3ccncc3)[nH]c3c2C(=O)CC(C)(C)C3)c1 [Example 104, 3-[(3-ethoxyphenyl)amino]-6,6-dimethyl-2-(pyridin-4-yl)-1,5,6,7-tetrahydro-4H-indol-4-one] | 0.524
15 | CC1(C)CC(=O)c2c([nH]c(-c3ccncc3)c2Nc2cccc(OCCO)c2)C1 [Example 106, 3-{[3-(2-hydroxyethoxy)phenyl]amino}-6,6-dimethyl-2-(pyridin-4-yl)-1,5,6,7-tetrahydro-4H-indol-4-one] | 5.35
16 | CC1(C)CC(=O)c2c([nH]c(-c3ccncc3)c2Nc2cccc(OC(F)(F)F)c2)C1 [Example 107, 6,6-dimethyl-2-(pyridin-4-yl)-3-{[3-(trifluoromethoxy)phenyl]amino}-1,5,6,7-tetrahydro-4H-indol-4-one] | 0.164
17 | CCCOc1cccc(Nc2c(-c3ccncc3)[nH]c3c2C(=O)CC(C)(C)C3)c1 [Example 108, 6,6-dimethyl-3-[(3-propoxyphenyl)amino]-2-(pyridin-4-yl)-1,5,6,7-tetrahydro-4H-indol-4-one] | 0.104
18 | CC(=O)Nc1cccc(Nc2c(-c3ccncc3)[nH]c3c2C(=O)CC(C)(C)C3)c1 [Example 109, N-(3-{[6,6-dimethyl-4-oxo-2-(pyridin-4-yl)-4,5,6,7-tetrahydro-1H-indol-3-yl]amino}phenyl)acetamide] | 4.56
19 | COc1cc(Nc2c(-c3ccncc3)[nH]c3c2C(=O)CC(C)(C)C3)ccc1F [Example 110, 3-[(4-fluoro-3-methoxyphenyl)amino]-6,6-dimethyl-2-(pyridin-4-yl)-1,5,6,7-tetrahydro-4H-indol-4-one] | 0.235
20 | CC1(C)CC(=O)c2c([nH]c(-c3ccncc3)c2Nc2ccc(F)c(CO)c2)C1 [Example 111, 3-{[4-fluoro-3-(hydroxymethyl)phenyl]amino}-6,6-dimethyl-2-(pyridin-4-yl)-1,5,6,7-tetrahydro-4H-indol-4-one] | 2.63

Second part, the compound after the results:

Row | IC50 [µM] | SMILES
21 | 3.48 | CC(O)c1cccc(Nc2c(-c3ccncc3)[nH]c3c2C(=O)CC(C)(C)C3)c1 (stereo not drawn) [Example 112, 3-{[3-(1-hydroxyethyl)phenyl]amino}-6,6-dimethyl-2-(pyridin-4-yl)-1,5,6,7-tetrahydro-4H-indol-4-one]
22 | 0.174 | CC(=O)c1cccc(Nc2c(-c3ccncc3)[nH]c3c2C(=O)CC(C)(C)C3)c1 [Example 113, 3-[(3-acetylphenyl)amino]-6,6-dimethyl-2-(pyridin-4-yl)-1,5,6,7-tetrahydro-4H-indol-4-one]
23 | 8.64 | CC1(C)CC(=O)c2c([nH]c(-c3ccncc3)c2Nc2cccc(C(C)(C)C)c2)C1 [Example 114, 3-[(3-tert-butylphenyl)amino]-6,6-dimethyl-2-(pyridin-4-yl)-1,5,6,7-tetrahydro-4H-indol-4-one]
24 | 0.175 | CC1(C)CC(=O)c2c([nH]c(-c3ccncc3)c2Nc2cccc(OC(F)F)c2)C1 [Example 117, 3-{[3-(difluoromethoxy)phenyl]amino}-6,6-dimethyl-2-(pyridin-4-yl)-1,5,6.7-tetrahydro-4H-indol-4-one]
25 | 0.457 | CC1(C)CC(=O)c2c([nH]c(-c3ccncc3)c2Nc2cccc(C(=O)OC(C)(C)C)c2)C1 [Example 118, tert-butyl 3-{[6,6-dimethyl-4-oxo-2-(pyridin-4-yl)-4,5,6,7-tetrahydro-1H-indol-3-yl]amino}benzoate]
26 | 2.34 | CC1(C)CC(=O)c2c([nH]c(-c3ccncc3)c2Nc2cccc(C3OCCO3)c2)C1 [Example 119, 3-{[3-(1,3-dioxolan-2-yl)phenyl]amino}-6,6-dimethyl-2-(pyridin-4-yl)-1,5,6,7-tetrahydro-4H-indol-4-one]
27 | 0.323 | COc1cc(F)ccc1Nc1c(-c2ccncc2)[nH]c2c1C(=O)CC(C)(C)C2 [Example 121, 3-[(4-fluoro-2-methoxyphenyl)amino]-6,6-dimethyl-2-(pyridin-4-yl)-1,5,6,7-tetrahydro-4H-indol-4-one]
28 | 0.058 | CC1(C)CC(=O)c2c([nH]c(-c3ccnc(N)c3)c2Nc2ccccc2)C1 [Example 122, 2-(2-aminopyridin-4-yl)-6,6-dimethyl-3-(phenylamino)-1,5,6,7-tetrahydro-4H-indol-4-one]
29 | 0.154 | COc1ccccc1Nc1c(-c2ccncc2)[nH]c2c1C(=O)CC(C)(C)C2 [Example 124, 3-[(2-methoxyphenyl)amino]-6,6-dimethyl-2-(pyridin-4-yl)-1,5,6,7-tetrahydro-4H-indol-4-one]
30 | 0.454 | CCOc1cc(F)ccc1Nc1c(-c2ccncc2)[nH]c2c1C(=O)CC(C)(C)C2 [Example 125, 3-[(2-ethoxy-4-fluorophenyl)amino]-6,6-dimethyl-2-(pyridin-4-yl)-1,5,6,7-tetrahydro-4H-indol-4-one]
31 | 14.5 | CC1(C)CC(=O)c2c([nH]c(-c3ccnc(N4CCCC4)c3)c2Nc2ccccc2)C1 [Example 126, 6,6-dimethyl-3-(phenylamino)-2-[2-(pyrrolidin-1-yl)pyridin-4-yl]-1,5,6,7-tetrahydro-4H-indol-4-one]
32 | 7.75 | CC1(C)CC(=O)c2c([nH]c(-c3ccnc(N4CCOCC4)c3)c2Nc2ccccc2)C1 [Example 127, 6,6-dimethyl-2-[2-(morpholin-4-yl)pyridin-4-yl]-3-(phenylamino)-1,5,6,7-tetrahydro-4H-indol-4-one]
33 | 0.576 | CCOc1ccccc1Nc1c(-c2ccncc2)[nH]c2c1C(=O)CC(C)(C)C2 [Example 128, 3-[(2-ethoxyphenyl)amino]-6,6-dimethyl-2-(pyridin-4-yl)-1,5,6,7-tetrahydro-4H-indol-4-one]
34 | 0.447 | CC1(C)CC(=O)c2c([nH]c(-c3ccncc3)c2Nc2ccc(F)c(C(F)(F)F)c2)C1 [Example 129, 3-{[4-fluoro-3-(trifluoromethyl)phenyl]amino}-6,6-dimethyl-2-(pyridin-4-yl)-1,5,6,7-tetrahydro-4H-indol-4-one]
35 | 0.0581 | CC1(C)CC(=O)c2c([nH]c(-c3ccncc3)c2Nc2ccc3ccsc3c2)C1 [Example 130, 3-(1-benzothiophen-6-ylamino)-6,6-dimethyl-2-(pyridin-4-yl)-1,5,6,7-tetrahydro-4H-indol-4-one]
36 | 0.0518 | Cc1cnccc1-c1[nH]c2c(c1Nc1ccccc1)C(=O)CC(C)(C)C2 [Example 131, 6,6-dimethyl-2-(3-methylpyridin-4-yl)-3-(phenylamino)-1,5,6,7-tetrahydro-4H-indol-4-one]
